Measurements: US20110275559A1, “Long-Acting Y2 and/or Y4 Receptor Agonists” (Novo Nordisk A/S, priority 2008, published 2011)
*1 amine or outer side, *2 acyl side, *3 side chain or, on linkers, in order; H or OH if unused. Where a SMILES comes first, the peptide text is derived from it. Side-chain parts run from the residue outwards. The star is where a group is joined. C20 diacid = O=C(O)CCCCCCCCCCCCCCCCCCC(=O)*; C18 diacid = O=C(O)CCCCCCCCCCCCCCCCC(=O)*; γGlu = O=C(O)[C@H](CCC(=O)[*:2])N[*:1]; Trx = NC[C@H]1CC[C@H](C(=O)O)CC1; AEEA = NCCOCCOCC(=O)O

Assay: in vivo
Conditions: Göttingen, minipig, iv
Description: (§1) The mini-pigs had two central venous catheters inserted which were used for intra venous (i.v.) dosing and bloodsampling. Compound was dissolved in 50 mM K2HPO4, 0.05% tween 80, pH=8.0 to a concentration of 180 nmol/ml. The pigs were dosed with 6 nmol compound/kg body weight. […] The blood samples were collected into test tubes containing EDTA buffer for stabilization and kept on ice for max. 20 minutes before centrifugation. The centrifugation procedure to separate plasma was; 4° C., 3000 rpm for 10 minutes. Plasma were collected and immediately transferred to Micronic tubes stored at −20° C. until assayed.
An additional mini-pig PK assay was used for measuring PK of the compounds of the invention. […] The animals had two central venous catheters inserted which were used for intra venous (i.v.) dosing and blood sampling. Compounds were dissolved in 10 mM Na2HPO4, 150 mM NaCl, 0.01% tween 80, pH=4.0 to concentrations in the range of 40 nmol/ml to 200 nmol/ml. The mini-pigs were dosed i.v. with 10 nmol compound/kg body weight, occasionally other doses such as 4 nmol/kg, 30 nmol/kg or 50 nmol/kg were administered. Each compound was dosed to 3 or 4 mini-pigs, and two compounds may be given simultaneously to the same animal. Blood were sampled pre-dose and 12 times during the first 10 hours post-dose. Blood were furthermore sampled once daily until 13 days post dosing. The blood samples were collected into test tubes containing EDTA buffer, trasylol and Val-Pyr for stabilization and kept on ice for max. 20 minutes. Samples were centrifuged at 4° C., 2000G for 10 minutes to separate plasma. Plasma were collected and immediately transferred to Micronic tubes stored at −20° C. until assayed.
Plasma samples were analysed by LC-MS on an LTQ-Orbitrap (ThermoFisher Scientific, Bremen) to which Accela HPLC pumps and an autosampler were connected (both from ThermoFisher). […] HPLC was performed on a Jupiter Proteo column (4μ) 90A (50×2.0 mm ID). […] The flow rate was 0.3 ml/min. For analysis of plasma samples, 30 μl plasma was precipitated with 90 μl ethanol. […] The heptane phase was removed after 5 min and the remaining solution was analysed by LC-MS as described above. For construction of plasma standards, compound was spiked to plasma (minipig) at the following concentrations: 1 nM, 2 nM, 5 nM, 10 nM, 20 nM, 50 nM, 100 nM, 200 nM. The plasma standards were treated as the samples. The lower limit of quantification was estimated to 2 nM.
Non-compartmental analysis (NCA): Plasma concentration-time profiles were analyzed by non-compartmental pharmacokinetics analysis (NCA) using WinNonlin Professional 5.0 (Pharsight Inc., Mountain View, Calif., USA). NCA was performed using the individual plasma concentration-time profiles from each animal.
For determination of plasma concentration of the PYY and PP peptide derivative or analogues thereof the following Methods 1-4 were used.
as §1, with “bloodsampling. The compound” for “bloodsampling. Compound”, “to an appropriate” for “to a”, “concentration (e.g. 25-500 nmol/mL).” for “concentration of 180 nmol/ml.”, “dosed intravenously (i.v.) or subcutaneously (s.c.)” for “dosed”, “with between 1 and 30” for “with 6”, “buffer (with Aprotinin 15000 KIE/mL and Val-Pyr 0.30 mM)” for “buffer”
An additional mini-pig PK assay was used for measuring PK of the compounds of the invention. […] The animals had two central venous catheters inserted which were used for intra venous (i.v.) dosing and blood sampling.

Row | SMILES | half-life (10 nmol/kg) | also measured
1 | CC[C@H](C)[C@H](NC(=O)[C@H](Cc1ccc(O)cc1)NC(=O)[C@H](CCCNC(=N)N)NC(=O)[C@H](CCCNC(=N)N)NC(=O)[C@H](CC(C)C)NC(=O)[C@H](CC(=O)O)NC(=O)[C@H](C)NC(=O)[C@H](C)NC(=O)[C@H](Cc1ccc(O)cc1)NC(=O)[C@H](CCC(N)=O)NC(=O)[C@H](C)NC(=O)[C@H](CC(C)C)NC(=O)[C@H](CCC(N)=O)NC(=O)[C@H](CCC(=O)O)NC(=O)[C@@H]1CCCN1C(=O)[C@@H](NC(=O)[C@H](C)NC(=O)[C@H](CC(N)=O)NC(=O)[C@H](CC(=O)O)NC(=O)CNC(=O)[C@@H]1CCCN1C(=O)[C@H](Cc1ccc(O)cc1)NC(=O)[C@@H](NC(=O)[C@@H]1CCCN1C(=O)[C@H](CCC(=O)O)NC(=O)[C@H](CC(C)C)NC(=O)[C@@H]1CCCN1)C(C)C)[C@@H](C)O)C(=O)N[C@@H](CC(N)=O)C(=O)N[C@@H](CC(C)C)C(=O)N[C@@H](CC(C)C)C(=O)N[C@H](C(=O)N[C@@H](CCCNC(=N)N)C(=O)N1CCC[C@H]1C(=O)N[C@@H](CCCCNC(=O)COCCOCCNC(=O)COCCOCCNC(=O)CC[C@H](NC(=O)CCCCCCCCCCCCCCCCC(=O)O)C(=O)O)C(=O)N[C@@H](Cc1ccc(O)cc1)C(N)=O)[C@@H](C)O [SEQ ID NO: 47, N-epsilon35-[2-(2-{2-[2-(2-{2-[(S)-4-Carboxy-4-(17-carboxyheptadecanoylamino)butyrylamino]ethoxy}ethoxy)acetylamino]-ethoxy}ethoxy)acetyl][Leu17,Leu30,Lys35]hPP2-36] (H-PLEPVYPGDNATPEQLAQYAADLRRYINLLTRPK([AEEA-AEEA-γGlu-C18 diacid])Y-NH2) | 78 h | 
2 | CC[C@H](C)[C@H](NC(=O)[C@H](Cc1ccc(O)cc1)NC(=O)[C@H](CCCNC(=N)N)NC(=O)[C@H](CCCCNC(=O)COCCOCCNC(=O)COCCOCCNC(=O)CC[C@H](NC(=O)CCCCCCCCCCCCCCCCC(=O)O)C(=O)O)NC(=O)[C@H](CC(C)C)NC(=O)[C@H](CC(=O)O)NC(=O)[C@H](C)NC(=O)[C@H](C)NC(=O)[C@H](Cc1ccc(O)cc1)NC(=O)[C@H](CCC(N)=O)NC(=O)[C@H](C)NC(=O)[C@H](CC(C)C)NC(=O)[C@H](CCC(N)=O)NC(=O)[C@H](CCC(=O)O)NC(=O)[C@@H]1CCCN1C(=O)[C@@H](NC(=O)[C@H](C)NC(=O)[C@H](CC(N)=O)NC(=O)[C@H](CC(=O)O)NC(=O)CNC(=O)[C@@H]1CCCN1C(=O)[C@H](Cc1ccc(O)cc1)NC(=O)[C@@H](NC(=O)[C@@H]1CCCN1C(=O)[C@H](CCC(=O)O)NC(=O)[C@H](CC(C)C)NC(=O)[C@@H]1CCCN1)C(C)C)[C@@H](C)O)C(=O)N[C@@H](CC(N)=O)C(=O)N[C@@H](CC(C)C)C(=O)N[C@@H](CC(C)C)C(=O)N[C@H](C(=O)N[C@@H](CCCNC(=N)N)C(=O)N1CCC[C@H]1C(=O)N[C@@H](CCCNC(=N)N)C(=O)N[C@@H](Cc1ccc(O)cc1)C(N)=O)[C@@H](C)O [SEQ ID NO: 49, N-epsilon25-[2-(2-{2-[2-(2-{2-[(S)-4-Carboxy-4-(17-carboxyheptadecanoylamino)butyrylamino]ethoxy}ethoxy)acetylamino]-ethoxy}ethoxy)acetyl][Leu17,Lys25,Leu30]hPP2-36] (H-PLEPVYPGDNATPEQLAQYAADLK([AEEA-AEEA-γGlu-C18 diacid])RYINLLTRPRY-NH2) | 88 h | 
3 | CC[C@H](C)[C@H](NC(=O)[C@H](Cc1ccc(O)cc1)NC(=O)[C@H](CCCNC(=N)N)NC(=O)[C@H](CCCCNC(=O)COCCOCCNC(=O)COCCOCCNC(=O)CC[C@H](NC(=O)[C@H]1CC[C@H](CNC(=O)CCCCCCCCCCCCCCCCCCC(=O)O)CC1)C(=O)O)NC(=O)[C@H](CC(C)C)NC(=O)[C@H](CC(=O)O)NC(=O)[C@H](C)NC(=O)[C@H](C)NC(=O)[C@H](Cc1ccc(O)cc1)NC(=O)[C@H](CCC(N)=O)NC(=O)[C@H](C)NC(=O)[C@H](CC(C)C)NC(=O)[C@H](CCC(N)=O)NC(=O)[C@H](CCC(=O)O)NC(=O)[C@@H]1CCCN1C(=O)[C@@H](NC(=O)[C@H](C)NC(=O)[C@H](CC(N)=O)NC(=O)[C@H](CC(=O)O)NC(=O)CNC(=O)[C@@H]1CCCN1C(=O)[C@H](Cc1ccc(O)cc1)NC(=O)[C@@H](NC(=O)[C@@H]1CCCN1C(=O)[C@H](CCC(=O)O)NC(=O)[C@H](CC(C)C)NC(=O)[C@@H]1CCCN1C(=O)[C@H](C)N)C(C)C)[C@@H](C)O)C(=O)N[C@@H](CC(N)=O)C(=O)N[C@@H](CC(C)C)C(=O)N[C@@H](CC(C)C)C(=O)N[C@H](C(=O)N[C@@H](CCCNC(=N)N)C(=O)N1CCC[C@H]1C(=O)N[C@@H](CCCNC(=N)N)C(=O)N[C@@H](Cc1ccc(O)cc1)C(N)=O)[C@@H](C)O [SEQ ID NO: 71, N-epsilon25-[2-(2-{2-[2-(2-{2-[(S)-4-Carboxy-4-({trans-4-[(19-carboxynonadecanoylamino)methyl]cyclohexanecarbonyl}amino)butyrylamino]-ethoxy}ethoxy)acetylamino]ethoxy}ethoxy)acetyl][Leu17,Lys25,Leu30]hPP1-36] (H-APLEPVYPGDNATPEQLAQYAADLK([AEEA-AEEA-γGlu-Trx-C20 diacid])RYINLLTRPRY-NH2) |  | half-life (in vivo, 13 nmol/kg): 13 h
4 | CC[C@H](C)[C@H](NC(=O)[C@H](Cc1ccc(O)cc1)NC(=O)[C@H](CCCNC(=N)N)NC(=O)[C@H](CCCNC(=N)N)NC(=O)[C@H](CC(C)C)NC(=O)[C@H](CC(=O)O)NC(=O)[C@H](C)NC(=O)[C@H](C)NC(=O)[C@H](Cc1ccc(O)cc1)NC(=O)[C@H](CCC(N)=O)NC(=O)[C@H](C)NC(=O)[C@H](CC(C)C)NC(=O)[C@H](CCC(N)=O)NC(=O)[C@H](CCCCNC(=O)COCCOCCNC(=O)COCCOCCNC(=O)CC[C@H](NC(=O)[C@H]1CC[C@H](CNC(=O)CCCCCCCCCCCCCCCCCCC(=O)O)CC1)C(=O)O)NC(=O)[C@@H]1CCCN1C(=O)[C@@H](NC(=O)[C@H](C)NC(=O)[C@H](CC(N)=O)NC(=O)[C@H](CC(=O)O)NC(=O)CNC(=O)[C@@H]1CCCN1C(=O)[C@H](Cc1ccc(O)cc1)NC(=O)[C@@H](NC(=O)[C@@H]1CCCN1C(=O)[C@H](CCC(=O)O)NC(=O)[C@H](CC(C)C)NC(=O)[C@@H]1CCCN1C(=O)[C@H](C)N)C(C)C)[C@@H](C)O)C(=O)N[C@@H](CC(N)=O)C(=O)N[C@@H](CC(C)C)C(=O)N[C@@H](CC(C)C)C(=O)N[C@H](C(=O)N[C@@H](CCCNC(=N)N)C(=O)N1CCC[C@H]1C(=O)N[C@@H](CCCNC(=N)N)C(=O)N[C@@H](Cc1ccc(O)cc1)C(N)=O)[C@@H](C)O [SEQ ID NO: 72, N-epsilon15-[2-(2-{2-[2-(2-{2-[(S)-4-Carboxy-4-({trans-4-[(19-carboxynonadecanoylamino)methyl]cyclohexanecarbonyl}amino)butyrylamino]-ethoxy}ethoxy)acetylamino]ethoxy}ethoxy)acetyl][Leu17,Lys15,Leu30]hPP1-36] (H-APLEPVYPGDNATPK([AEEA-AEEA-γGlu-Trx-C20 diacid])QLAQYAADLRRYINLLTRPRY-NH2) |  | half-life (in vivo, 8 nmol/kg): 14 h
